Reference: BindingDB's records for doi:10.1080/14756360290019944 (University of Porto-Rua Anibal Cunha, 2002)

molecular target: Xanthine dehydrogenase/oxidase (Homo sapiens, UniProt P47989); test: Inhibition Assay; conditions: pH 7.8; 25 °C
Protocol: The effect of 2-styrylchromone 1-3 on xanthine oxidase activity was evaluated by measuring the formation of uric acid from xanthine in a double beam spectrophotometer (Shimadzu 2600) at room temperature.

Xanthine dehydrogenase/oxidase, sequence (P47989 whole entry): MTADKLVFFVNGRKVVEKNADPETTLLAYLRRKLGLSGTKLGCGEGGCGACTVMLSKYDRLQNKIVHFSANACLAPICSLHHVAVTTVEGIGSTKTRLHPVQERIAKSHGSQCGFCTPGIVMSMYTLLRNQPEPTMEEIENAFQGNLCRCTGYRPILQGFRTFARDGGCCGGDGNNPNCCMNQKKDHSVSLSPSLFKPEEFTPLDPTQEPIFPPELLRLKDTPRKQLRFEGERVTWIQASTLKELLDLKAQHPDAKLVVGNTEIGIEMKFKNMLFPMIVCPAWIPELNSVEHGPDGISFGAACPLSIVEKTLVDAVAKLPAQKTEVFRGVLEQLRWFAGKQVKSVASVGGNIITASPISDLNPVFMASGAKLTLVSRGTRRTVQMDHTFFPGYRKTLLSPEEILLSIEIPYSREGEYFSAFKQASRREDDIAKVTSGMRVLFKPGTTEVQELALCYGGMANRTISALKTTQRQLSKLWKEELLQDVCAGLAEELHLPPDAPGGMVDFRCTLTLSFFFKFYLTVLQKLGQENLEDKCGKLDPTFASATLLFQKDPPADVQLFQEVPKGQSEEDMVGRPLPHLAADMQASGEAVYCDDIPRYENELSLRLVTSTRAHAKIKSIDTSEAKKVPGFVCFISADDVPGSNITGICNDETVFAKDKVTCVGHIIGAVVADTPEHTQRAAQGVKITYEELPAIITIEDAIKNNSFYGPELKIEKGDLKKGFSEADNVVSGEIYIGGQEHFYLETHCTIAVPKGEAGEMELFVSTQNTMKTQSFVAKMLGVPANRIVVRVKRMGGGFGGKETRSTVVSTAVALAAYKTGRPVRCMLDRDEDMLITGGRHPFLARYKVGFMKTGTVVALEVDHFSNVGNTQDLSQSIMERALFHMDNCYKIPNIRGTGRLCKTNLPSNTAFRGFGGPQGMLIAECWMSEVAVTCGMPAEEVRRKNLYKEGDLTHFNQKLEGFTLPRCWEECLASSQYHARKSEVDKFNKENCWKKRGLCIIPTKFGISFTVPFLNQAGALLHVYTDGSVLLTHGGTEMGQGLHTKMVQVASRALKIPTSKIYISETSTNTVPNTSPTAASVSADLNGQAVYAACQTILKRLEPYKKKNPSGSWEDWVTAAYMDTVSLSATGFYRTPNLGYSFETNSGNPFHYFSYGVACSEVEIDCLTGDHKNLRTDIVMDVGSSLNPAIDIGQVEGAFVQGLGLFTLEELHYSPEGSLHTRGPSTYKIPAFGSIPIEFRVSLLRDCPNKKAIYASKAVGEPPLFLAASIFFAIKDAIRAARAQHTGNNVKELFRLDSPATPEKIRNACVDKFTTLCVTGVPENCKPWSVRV

IC50	SMILES
19.6 µM	O=c1cc(/C=C/c2ccc(O)cc2)oc2cc(O)ccc12 [2-Styrylchromone derivate, 2b]
9.46 µM	O=c1cc(C=Cc2ccc(O)cc2)oc2cc(O)cc(O)c12 [2-Styrylchromone derivate, 2c]
4.36 µM	O=c1cccc2oc(C=Cc3ccc(O)c(O)c3)cc(O)c1-2 [2-Styrylchromone derivate, 3a]
2.03 µM	O=c1cc(/C=C/c2ccc(O)c(O)c2)oc2cc(O)ccc12 [2-Styrylchromone derivate, 3b]
0.55 µM	O=c1cc(O)cc2oc(C=Cc3ccc(O)c(O)c3)cc(O)c1-2 [2-Styrylchromone derivate, 3c]

Continued, compound first:

SMILES	IC50
O=c1cc(/C=C/c2ccccc2)oc2ccccc12	> 100 µM
O=c1cccc2oc(C=Cc3ccccc3)cc(O)c1-2 [2-Styrylchromone derivate, 1b]	52.1 µM
O=c1cc(/C=C/c2ccccc2)oc2cc(O)ccc12 [2-Styrylchromone derivate, 1c]	17 µM
O=c1cc(C=Cc2ccccc2)oc2cc(O)cc(O)c12 [2-Styrylchromone derivate, 1d]	2.52 µM
O=c1cccc2oc(C=Cc3ccc(O)cc3)cc(O)c1-2 [2-Styrylchromone derivate, 2a]	77.4 µM
